In one experiment the test system is HSV-1. Briefly: HSV-1 infection of hiNSCs with VCV treatment (HSV immunostaining, qPCR for HSV-UL29). Format: cell-based, herpes simplex virus type 1. The method, then: (§1) hiNSC colonies were trypsinized off of MEF feeder layers using TrypLE (Invitrogen) and then dissociated by manual pipetting. Cell suspensions were passaged through a 40- to […] cell strainer to remove larger aggregates. Dissociated hiNSCs were cultured on gelatin-coated plates in neurobasal media supplemented with 2% B27 (Invitrogen), 1% glutamax, and 1% antibiotic-antimycotic. For HSV infection, we used purified HSV-1 to directly infect hiNSCs at a range of MOIs (0.00001 to 1), which was calculated based on the starting virus concentration (2×10^7 PFU/ml) and initial seeding density.
(§2) Once added to media, inoculum was allowed to remain in cell cultures for the duration of the experiment to mimic low-level brain infection. For mock infections, an equal volume of control culture medium from uninfected Vero cells was used. All virus work was approved by the Tufts Institutional Biosafety Committee. Valacyclovir (VCV) HCl was reconstituted in dH2O and used at a concentration of 200 μM for all subsequent experiments. […]
(§3) Total RNA was isolated using the RNeasy Mini Kit (Qiagen). […] Quantitative reverse transcription PCR (qRT-PCR) was performed using SYBR Green and the CFX96 Real-Time PCR Detection System (Bio-Rad) and normalized against the housekeeping gene glyceraldehyde phosphate dehydrogenase. […]
A general note: In qPCR the cycle at which signal appears reflects the starting amount.

Experiment [1] concerns HSV-1-infected hiNSCs. Briefly: Gliosis and neuroinflammation (GFAP, TNFα) in HSV-1-infected hiNSCs, immunostaining and qPCR. The experiment is classed as cell-based, human. The method, then:
as §1, §2, §3

In experiment [2] the test system is HSV-1-infected hiNSCs. Briefly: Aβ+ plaque-like formations (PLFs) in HSV-1-infected hiNSCs, immunostaining. The experiment is classed as cell-based, human. To be noted: 200 μM VCV, MOI 0.0001, HCl. As for the experimental part: as §1
(§4) Once added to media, inoculum was allowed to remain in cell cultures for the duration of the experiment to mimic low-level brain infection. For mock infections, an equal volume of control culture medium from uninfected Vero cells was used. All virus work was approved by the Tufts Institutional Biosafety Committee. Valacyclovir (VCV) HCl was reconstituted in dH2O and used at a concentration of 200 μM for all subsequent experiments. VCV was added at day 0 (D0; concurrently with HSV-1 infection) or day 1 (D1; 24 hours after infection).
Cells grown in tissue culture plates or in 3D scaffolds were fixed in 4% paraformaldehyde and washed with 1×phosphate-buffered saline (PBS). Samples were incubated with a blocking buffer consisting of PBS, 10% goat serum, and 0.1% Triton X-100. […]

In experiment [3] the test system is APP, BACE1, PSEN1, and PSEN2. Briefly: qPCR expression of AD mediators (APP, BACE1, PSEN1, PSEN2) in HSV-1-infected hiNSCs. Format: cell-based, human. The conditions noted are these: HSV-1 MOI 0.0001. As for the experimental part:
as §1, §2, §3

Experiment [4] concerns hiNSCs. Nature of the experiment: Conditioned media (CM) experiment: reactive glia formation in new hiNSCs, TUJ1 and GFAP immunostaining. The experiment is classed as cell-based, human. To be noted: VCV in virus CM with fresh HSV-1; new hiNSCs cultured for 4 days. As for the experimental part:
Cells grown in tissue culture plates or in 3D scaffolds were fixed in 4% paraformaldehyde and washed with 1×phosphate-buffered saline (PBS). Samples were incubated with a blocking buffer consisting of PBS, 10% goat serum, and 0.1% Triton X-100. Primary antibodies were added to the blocking buffer and incubated with samples overnight at 4° C. The next day, samples were washed several times with PBS and incubated with a corresponding fluorescently conjugated secondary antibody in a blocking buffer for 1 hour at room temperature. Nuclei were counterstained with 4′,6-diamidino-2-phenylindole (Invitrogen).
Moreover, we aimed to understand whether HSV-1-secreted factors could cause gliosis even in the absence of infection (FIG. 7). CM were harvested and filtered from mock- or HSV-1-infected hiNSCs that had been cultured for 2 days. Fresh HSV-1 virus was added to CM in the absence or presence of antiviral treatment VCV, and new hiNSCs were cultured for 4 days. β-III tubulin (TUJ1) and GFAP immunostaining was performed to visualize neurons and glia, respectively.

In experiment [5] the test system is HSV-1-infected hiNSCs. Briefly: Latency model of HSV-1 infection in hiNSCs (acute infection followed by antiviral treatment), qPCR. The experiment is classed as cell-based, human. To be noted: acute HSV-1 infection 24 hrs followed by antiviral treatment (latency induction). From the text: A) Schematic of timeline of HSV-1 and antiviral treatments to induce latency. Acute infection of hiNSCs with HSV-1 for 24 hrs. followed by antiviral treatment results in similar expression patterns of typical AD markers as described previously (B-D). E) This treatment also results in quantifiable expression of HSV-1 latency associated transcript (LAT).
HSV-1 typically lies latent in the peripheral nervous system indefinitely, and it is only upon reactivation that this virus can exert its detrimental effects such as cold sores and potentially neurodegeneration. Understanding potential triggers of this viral reactivation are crucial in elucidating downstream pathways involved in disease pathogenesis. There are currently few if any suitable in vitro models of HSV-1 latency. Here, we describe a method with which to induce latency of HSV-1 in vitro. […] Induction of latency with valacyclovir was also associated with an increase in glial fibrillary acidic protein (GFAP) expression (FIG. 21D), which is indicative of gliosis.

Experiment [6] concerns hiNSCs. Nature of the experiment: VCV alone in the absence of virus on hiNSCs. The experiment is classed as cell-based, human. The conditions noted are these: 200 μM VCV alone, no virus (data not shown). The method, then: as §4
One of the most commonly used antiviral agents for treating HSV-1 infections is VCV, which specifically targets viral DNA replication in infected cells. We cultured hiNSCs for 4 days before subjecting to either mock or HSV-1 infection (MOI 0.0001). […] We first immunostained against HSV and Aβ (FIG. 4A) to determine any differences in the rate of HSV-1 infection and PLF generation in response to drug treatment.

“Also recorded” adds a separate entry of the source. Structures can show the parent of a compound that is named as a salt.

With `CC(C)[C@H](N)C(=O)OCCOCn1cnc2c(=O)[nH]c(N)nc21` [VCV, Valacyclovir HCl], the HSV-1 infection entry in the experiment on HSV-1 (200 μM VCV at D0 (concurrently with HSV-1 infection), MOI 0.0001) is “almost completely abolished infection”. Moreover, in the experiment with HSV-1 (200 μM VCV, both drug regimens (D0 or D1), HSV-1 MOI 0.0001, hiNSCs, HCl), the “HSV-1 infection (immunostaining and qPCR for HSV-UL29)” value is reported as “significant decrease; also recorded: reduces HSV-1 infection”. For the same compound, the “GFAP expression (immunostaining and qPCR)” value in the experiment on HSV-1-infected hiNSCs [1] (200 μM VCV at D0) is on record as “almost completely restored”. In addition, the “pro-inflammatory mediator TNFα” value in the experiment with HSV-1-infected hiNSCs [1] (200 μM VCV, both D0 and D1 dosing regimens) is reported as “significantly reduced”. In the experiment on HSV-1-infected hiNSCs [2], the “average number of PLFs” value is “significantly reduced; also recorded: decrease” and the “average size (area) of PLFs” value is listed as “significantly reduced; also recorded: decrease”. Further, the “expression of AD mediators APP, BACE1, PSEN1 and PSEN2 (qPCR)” value in experiment [3] (200 μM VCV at D0) was “nearly rescued all markers back to control values”. For the same compound, the “expression of AD mediators APP, BACE1, PSEN1 and PSEN2 (qPCR)” value in experiment [3] (200 μM VCV at D1 (24 hours after infection)) was “partial rescue”. For the same compound, in the experiment on hiNSCs [4], the reactive glia formation entry was “increased reactive glia formation”. Further, in the experiment with HSV-1-infected hiNSCs [5], the “HSV-1 latency associated transcript (LAT)” value is “significant increase”, the PSEN2 expression result is recorded as “significant increase” and the “glial fibrillary acidic protein (GFAP) expression” value is reported as “increase”. Moreover, the “effect on hiNSCs in the absence of virus” value in the experiment with hiNSCs [6] was “no discernible effect”.
